Test results reported in PubChem BioAssay (NCI).
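Cells were grown in 96-well plates and exposed to each compound for 48 hours at five concentrations; endpoints were interpolated linearly between bracketing concentrations, or set to the highest concentration if not reached. At the GI50, growth is halved. Definition used: TGI = concentration required for complete inhibition of growth.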

How the values were obtained:
Test in all cases: NCI-60 cell line screen, 48 h
TK-10 renal = tested on: TK-10 renal
786-0 renal = tested on: 786-0 renal
U251 CNS = tested on: U251 CNS
HCC-2998 colon = tested on: HCC-2998 colon
OVCAR-4 ovarian = tested on: OVCAR-4 ovarian
NCI/ADR-RES ovarian = tested on: NCI/ADR-RES ovarian
T-47D breast = tested on: T-47D breast
MDA-MB-435 = tested on: MDA-MB-435
NCI-H522 lung = tested on: NCI-H522 lung
MDA-MB-231 breast = tested on: MDA-MB-231 breast
MDA-MB-468 breast = tested on: MDA-MB-468 breast
SK-MEL-5 melanoma = tested on: SK-MEL-5 melanoma
ACHN renal = tested on: ACHN renal
BT-549 breast = tested on: BT-549 breast
DU-145 prostate = tested on: DU-145 prostate
HCT-116 colon = tested on: HCT-116 colon
MALME-3M melanoma = tested on: MALME-3M melanoma
IGROV1 ovarian = tested on: IGROV1 ovarian
SF-539 CNS = tested on: SF-539 CNS
OVCAR-3 ovarian = tested on: OVCAR-3 ovarian
SF-295 CNS = tested on: SF-295 CNS
SNB-75 CNS = tested on: SNB-75 CNS
NCI-H23 lung = tested on: NCI-H23 lung
HS 578T breast = tested on: HS 578T breast
K-562 leukemia = tested on: K-562 leukemia
SN12C renal = tested on: SN12C renal
SR leukemia = tested on: SR leukemia
UACC-62 melanoma = tested on: UACC-62 melanoma
UACC-257 melanoma = tested on: UACC-257 melanoma
MCF7 breast = tested on: MCF7 breast
SK-MEL-2 melanoma = tested on: SK-MEL-2 melanoma
SK-MEL-28 melanoma = tested on: SK-MEL-28 melanoma
UO-31 renal = tested on: UO-31 renal
M14 melanoma = tested on: M14 melanoma
OVCAR-8 ovarian = tested on: OVCAR-8 ovarian
HL-60(TB) leukemia = tested on: HL-60(TB) leukemia
OVCAR-5 ovarian = tested on: OVCAR-5 ovarian
CAKI-1 renal = tested on: CAKI-1 renal
COLO 205 colon = tested on: COLO 205 colon
HOP-62 NSCLC = tested on: HOP-62 NSCLC
SK-OV-3 ovarian = tested on: SK-OV-3 ovarian
HCT-15 colon = tested on: HCT-15 colon
SNB-19 CNS = tested on: SNB-19 CNS
LOX IMVI melanoma = tested on: LOX IMVI melanoma
RXF 393 renal = tested on: RXF 393 renal
A498 renal = tested on: A498 renal
SW-620 colon = tested on: SW-620 colon
EKVX NSCLC = tested on: EKVX NSCLC
MOLT-4 leukemia = tested on: MOLT-4 leukemia
A549 NSCLC = tested on: A549 NSCLC

Which GI50 (TK-10 renal) does the source give for CC1=C(C=O)C2=C(C)C3(CC3)[C@@](C)(O)C(=O)C2=C1 here?
Its GI50 is 519 nM.

What about the TGI (TK-10 renal) of the same compound?
Its TGI is 2320 nM.

And the GI50 (786-0 renal)?
The GI50 was 209 nM.

And the TGI (786-0 renal)?
Its TGI is 491 nM.

What about the GI50 (U251 CNS) of the same compound?
The GI50 was 170 nM.

And the TGI (U251 CNS)?
Its TGI is 341 nM.

And the GI50 (HCC-2998 colon)?
Its GI50 is 179 nM.

And the TGI (HCC-2998 colon)?
The TGI was 338 nM.

And the GI50 (OVCAR-4 ovarian)?
Its GI50 is 407 nM.

And the TGI (OVCAR-4 ovarian)?
The TGI was 3990 nM.

What about the GI50 (NCI/ADR-RES ovarian) of the same compound?
Its GI50 is 321 nM.

And the TGI (NCI/ADR-RES ovarian)?
The TGI was 1310 nM.

And the GI50 (T-47D breast)?
The GI50 was 199 nM.

And the TGI (T-47D breast)?
The TGI was 566 nM.

What about the GI50 (MDA-MB-435) of the same compound?
The GI50 was 213 nM.

And the TGI (MDA-MB-435)?
Its TGI is 495 nM.

And the GI50 (NCI-H522 lung)?
The GI50 was 171 nM.

What about the TGI (NCI-H522 lung) of the same compound?
The TGI was 333 nM.

What about the GI50 (MDA-MB-231 breast) of the same compound?
Its GI50 is 194 nM.

What about the TGI (MDA-MB-231 breast) of the same compound?
Its TGI is 367 nM.

What about the GI50 (MDA-MB-468 breast) of the same compound?
Its GI50 is 159 nM.

What about the TGI (MDA-MB-468 breast) of the same compound?
Its TGI is 344 nM.

What about the GI50 (SK-MEL-5 melanoma) of the same compound?
Its GI50 is 187 nM.

And the TGI (SK-MEL-5 melanoma)?
Its TGI is 381 nM.

And the GI50 (ACHN renal)?
Its GI50 is 229 nM.

What about the TGI (ACHN renal) of the same compound?
The TGI was 543 nM.

What about the GI50 (BT-549 breast) of the same compound?
Its GI50 is 190 nM.

What about the TGI (BT-549 breast) of the same compound?
The TGI was 440 nM.

What about the GI50 (DU-145 prostate) of the same compound?
Its GI50 is 365 nM.

What about the TGI (DU-145 prostate) of the same compound?
Its TGI is 1310 nM.

What about the GI50 (HCT-116 colon) of the same compound?
The GI50 was 161 nM.

And the TGI (HCT-116 colon)?
The TGI was 317 nM.

What about the GI50 (MALME-3M melanoma) of the same compound?
Its GI50 is 180 nM.

And the TGI (MALME-3M melanoma)?
Its TGI is 353 nM.

And the GI50 (IGROV1 ovarian)?
The GI50 was 236 nM.

And the TGI (IGROV1 ovarian)?
The TGI was 538 nM.

What about the GI50 (SF-539 CNS) of the same compound?
Its GI50 is 178 nM.

And the TGI (SF-539 CNS)?
The TGI was 359 nM.

And the GI50 (OVCAR-3 ovarian)?
The GI50 was 250 nM.

What about the TGI (OVCAR-3 ovarian) of the same compound?
The TGI was 618 nM.

What about the GI50 (SF-295 CNS) of the same compound?
The GI50 was 194 nM.

And the TGI (SF-295 CNS)?
Its TGI is 387 nM.

And the GI50 (SNB-75 CNS)?
The GI50 was 176 nM.

And the TGI (SNB-75 CNS)?
The TGI was 547 nM.

And the GI50 (NCI-H23 lung)?
The GI50 was 180 nM.

And the TGI (NCI-H23 lung)?
The TGI was 361 nM.

And the GI50 (HS 578T breast)?
Its GI50 is 259 nM.

What about the TGI (HS 578T breast) of the same compound?
Its TGI is 799 nM.

What about the GI50 (K-562 leukemia) of the same compound?
Its GI50 is 243 nM.

And the TGI (K-562 leukemia)?
The TGI was 765 nM.

What about the GI50 (SN12C renal) of the same compound?
The GI50 was 221 nM.

What about the TGI (SN12C renal) of the same compound?
The TGI was 523 nM.

And the GI50 (SR leukemia)?
Its GI50 is 212 nM.

And the TGI (SR leukemia)?
Its TGI is 695 nM.

What about the GI50 (UACC-62 melanoma) of the same compound?
The GI50 was 179 nM.

And the TGI (UACC-62 melanoma)?
Its TGI is 372 nM.

And the GI50 (UACC-257 melanoma)?
Its GI50 is 188 nM.

And the TGI (UACC-257 melanoma)?
Its TGI is 418 nM.

And the GI50 (MCF7 breast)?
The GI50 was 181 nM.

What about the TGI (MCF7 breast) of the same compound?
The TGI was 576 nM.

What about the GI50 (SK-MEL-2 melanoma) of the same compound?
Its GI50 is 348 nM.

And the TGI (SK-MEL-2 melanoma)?
Its TGI is 1180 nM.

And the GI50 (SK-MEL-28 melanoma)?
Its GI50 is 284 nM.

What about the TGI (SK-MEL-28 melanoma) of the same compound?
Its TGI is 781 nM.

And the GI50 (UO-31 renal)?
The GI50 was 170 nM.

And the TGI (UO-31 renal)?
Its TGI is 359 nM.

And the GI50 (M14 melanoma)?
Its GI50 is 212 nM.

What about the TGI (M14 melanoma) of the same compound?
Its TGI is 463 nM.

And the GI50 (OVCAR-8 ovarian)?
Its GI50 is 214 nM.

What about the TGI (OVCAR-8 ovarian) of the same compound?
Its TGI is 562 nM.

And the GI50 (HL-60(TB) leukemia)?
Its GI50 is 227 nM.

What about the TGI (HL-60(TB) leukemia) of the same compound?
The TGI was 703 nM.

What about the GI50 (OVCAR-5 ovarian) of the same compound?
Its GI50 is 223 nM.

And the TGI (OVCAR-5 ovarian)?
The TGI was 533 nM.

And the GI50 (CAKI-1 renal)?
The GI50 was 306 nM.

What about the TGI (CAKI-1 renal) of the same compound?
Its TGI is 1090 nM.

And the GI50 (COLO 205 colon)?
The GI50 was 226 nM.

What about the TGI (COLO 205 colon) of the same compound?
The TGI was 459 nM.

And the GI50 (HOP-62 NSCLC)?
Its GI50 is 216 nM.

What about the TGI (HOP-62 NSCLC) of the same compound?
The TGI was 518 nM.

And the GI50 (SK-OV-3 ovarian)?
The GI50 was 678 nM.

What about the TGI (SK-OV-3 ovarian) of the same compound?
The TGI was 1800 nM.

And the GI50 (HCT-15 colon)?
The GI50 was 180 nM.

What about the TGI (HCT-15 colon) of the same compound?
The TGI was 370 nM.

What about the GI50 (SNB-19 CNS) of the same compound?
The GI50 was 342 nM.

And the TGI (SNB-19 CNS)?
The TGI was 1340 nM.

And the GI50 (LOX IMVI melanoma)?
The GI50 was 153 nM.

And the TGI (LOX IMVI melanoma)?
The TGI was 295 nM.

What about the GI50 (RXF 393 renal) of the same compound?
The GI50 was 147 nM.

What about the TGI (RXF 393 renal) of the same compound?
Its TGI is 293 nM.

And the GI50 (A498 renal)?
Its GI50 is 996 nM.

What about the TGI (A498 renal) of the same compound?
Its TGI is 2460 nM.

What about the GI50 (SW-620 colon) of the same compound?
Its GI50 is 255 nM.

And the TGI (SW-620 colon)?
The TGI was 694 nM.

What about the GI50 (EKVX NSCLC) of the same compound?
The GI50 was 244 nM.

What about the TGI (EKVX NSCLC) of the same compound?
Its TGI is 737 nM.

What about the GI50 (MOLT-4 leukemia) of the same compound?
The GI50 was 218 nM.

What about the TGI (MOLT-4 leukemia) of the same compound?
The TGI was 977 nM.

And the GI50 (A549 NSCLC)?
Its GI50 is 276 nM.

And the TGI (A549 NSCLC)?
Its TGI is 1010 nM.
